Test results as given in ChEMBL document CHEMBL1141299, “Hologram QSAR model for the prediction of human oral bioavailability” (Bioorg Med Chem, 2007).

Test: Oral bioavailability in human
Details: in vivo
Molecule `CC(C)N(CC[C@@](C(N)=O)(c1ccccc1)c1ccccn1)C(C)C` [DISOPIRAMIDE] has a bioavailability of 83%. `CC(C)C[C@H]1C(=O)N2CCC[C@H]2[C@]2(O)O[C@@](C)(NC(=O)[C@@H]3CC4c5cccc6[nH]cc(c56)C[C@H]4N(C)C3)C(=O)N12` (some centres undefined) [DIHYDROERGOSINE] gave a bioavailability of 10%. Work on `c1ccc(C2(N3CCCCC3)CCCCC2)cc1` [PHENCYCLIDINE] yielded a bioavailability of 72%. In the case of `C[C@]12CC[C@H]3[C@@H](CCC4=CC(=O)CC[C@@]43C)[C@@H]1CC[C@@H]2O` [TESTOSTERONE], the bioavailability is reported as 7%. `O=C1CN=C(c2ccccc2Cl)c2cc([N+](=O)[O-])ccc2N1` [CLONAZEPAM] showed a bioavailability of 90%. Molecule `CN/C(=N/CCSCc1nc[nH]c1C)NC#N` [CIMETIDINE] has a bioavailability of 60%. `COc1cccc([C@@]2(O)CCCC[C@@H]2CN(C)C)c1` [TRAMADOL] showed a bioavailability of 75%. `N[C@H](Cc1ccc(N(CCCl)CCCl)cc1)C(=O)O` gave a bioavailability of 71%. In the case of `N[C@@H](Cc1ccc(N(CCCl)CCCl)cc1)C(=O)O`, the bioavailability is reported as 71%. With `COc1c(N2CCN[C@@H](C)C2)c(F)cc2c(=O)c(C(=O)O)cn(C3CC3)c12` [(S)-GATIFLOXACIN] the bioavailability was 96%. `C[C@@H](NC(C)(C)C)C(=O)c1cccc(Cl)c1` showed a bioavailability of 70%. With `CN1C[C@H](CNC(=O)OCc2ccccc2)C[C@@H]2c3cccc4c3c(cn4C)C[C@H]21` [METERGOLINE] the bioavailability was 23%. `Cc1ncc2n1-c1ccc(Cl)cc1C(c1ccccc1F)=NC2` [MIDAZOLAM] showed a bioavailability of 40.5%. For `CCOC(=O)C1=C[C@@H](OC(CC)CC)[C@H](NC(C)=O)[C@@H](N)C1` [OSELTAMIVIR], the bioavailability was 75%. With `CCN(C(C)=O)c1cccc(-c2ccnc3c(C#N)cnn23)c1` [ZALEPLON] the bioavailability was 30%. Molecule `CCC1(c2ccccc2)C(=O)NC(=O)NC1=O` [PHENOBARBITAL] has a bioavailability of 96%. For `CCN(CC)C(=O)[C@]1(c2ccccc2)C[C@@H]1CN`, the bioavailability was 84%. Work on `CN(C)CCC[C@]1(c2ccc(F)cc2)OCc2cc(C#N)ccc21` [(R)-CITALOPRAM] yielded a bioavailability of 80%. For `COc1ccc2c3c1O[C@H]1[C@@H](O)C=C[C@H]4[C@@H](C2)N(C)CC[C@@]341` [CODEINE], the bioavailability was 55%. In the case of `O=C1CC[C@@]2(O)[C@H]3Cc4ccc(O)c5c4[C@@]2(CCN3CC2CC2)[C@H]1O5` [NALTREXONE], the bioavailability is reported as 20%. Molecule `C[N+]1(CC2CC2)[C@@H]2C[C@@H](OC(=O)[C@H](CO)c3ccccc3)C[C@H]1[C@@H]1O[C@@H]12.[Br-]` (some centres undefined) [CIMETROPIUM BROMIDE] has a bioavailability of 2%. With `Cc1ccnc2c1NC(=O)c1cccnc1N2C1CC1` [NEVIRAPINE] the bioavailability was 93%.

Same assay, conditions: in vivo, F
`COc1ccc2nc([S@@+]([O-])Cc3ncc(C)c(OC)c3C)[nH]c2c1` [ESOMEPRAZOLE] gave a bioavailability of 90%. Molecule `C[C@@H]1C[C@H]2[C@@H]3C[C@H](F)C4=CC(=O)C=C[C@]4(C)[C@H]3[C@@H](O)C[C@]2(C)[C@H]1C(=O)CO` [FLUOCORTOLONE] has a bioavailability of 83.5%. With `CCCCC(=O)O[C@H]1CC[C@H]2[C@@H]3CCc4cc(O)ccc4[C@H]3CC[C@]12C` [ESTRADIOL VALERATE] the bioavailability was 3%. Molecule `Cc1cccc(Nc2ccncc2S(=O)(=O)NC(=O)NC(C)C)c1` [TORSEMIDE] has a bioavailability of 91%. For `Cc1[nH]c(=O)c(C#N)cc1-c1ccncc1` [MILRINONE], the bioavailability was 92%. `Cc1nccn1C[C@@H]1CCc2c(c3ccccc3n2C)C1=O` [(S)-ONDANSETRON] gave a bioavailability of 62%. Work on `O=C1NC(=O)C(c2ccccc2)(c2ccccc2)N1` [PHENYTOIN] yielded a bioavailability of 90%. Work on `C[C@@H]1COc2c(N3CCN(C)CC3)c(F)cc3c(=O)c(C(=O)O)cn1c23` [DEXTROFLOXACINE] yielded a bioavailability of 97.5%. `CO[C@H]1/C=C/O[C@@]2(C)Oc3c(C)c(O)c4c(O)c(c(/C=N/N5CCN(C)CC5)c(O)c4c3C2=O)NC(=O)/C(C)=C\C=C\[C@H](C)[C@H](O)[C@@H](C)[C@@H](O)[C@@H](C)[C@H](OC(C)=O)[C@@H]1C` [RIFAMPIN] gave a bioavailability of 88.8%. Work on `COC(=O)C1=C(C)NC(C)=C(C(=O)OC(C)C)[C@H]1c1cccc2nonc12` [(S)-ISRADIPINE] yielded a bioavailability of 19.5%. With `CC(C)Cc1ccc([C@@H](C)C(=O)O)cc1` [(R)-IBUPROPHEN] the bioavailability was 80%. In the case of `CC(C)Nc1cccnc1N1CCN(C(=O)c2cc3cc(NS(C)(=O)=O)ccc3[nH]2)CC1` [DELAVIRDINE], the bioavailability is reported as 96%. `COc1c(C)c2c(c(O)c1C/C=C(\C)CCC(=O)O)C(=O)OC2` [MYCOPHENOLIC ACID] showed a bioavailability of 72%. For `CC(C)NC[C@@H](O)COc1ccc(OCCOCC2CC2)cc1`, the bioavailability was 100%. Work on `CC1(C)O[C@@H]2C[C@H]3[C@@H]4C[C@H](F)C5=CC(=O)C=C[C@]5(C)[C@H]4[C@@H](O)C[C@]3(C)[C@]2(C(=O)CO)O1` [FLUNISOLIDE] yielded a bioavailability of 20%. Work on `C[C@@H](C(=O)O)c1ccc(C(=O)c2cccs2)cc1` [(R)-SUPROFEN] yielded a bioavailability of 92%. With `CCCCCCCCCCCCCCCC(=O)OC[C@@H](NC(=O)C(Cl)Cl)[C@H](O)c1ccc([N+](=O)[O-])cc1` [CHLORAMPHENICOL PALMITATE] the bioavailability was 80%. `C[C@@H](C(=O)O)c1ccc(-c2ccccc2)c(F)c1` [TARENFLURBIL] showed a bioavailability of 92%. Work on `C[C@H]1O[C@@H](O[C@H]2[C@@H](O)C[C@H](O[C@H]3[C@@H](O)C[C@H](O[C@H]4CC[C@@]5(C)[C@H](CC[C@@H]6[C@@H]5C[C@@H](O)[C@]5(C)[C@@H](C7=CC(=O)OC7)CC[C@]65O)C4)O[C@@H]3C)O[C@@H]2C)C[C@H](O)[C@@H]1O` [DIGOXIN] yielded a bioavailability of 95%. `CN1CCN2c3ccccc3Cc3ccccc3[C@H]2C1` showed a bioavailability of 20%. In the case of `CCOc1cc(CC(=O)N[C@@H](CC(C)C)c2ccccc2N2CCCCC2)ccc1C(=O)O` [REPAGLINIDE], the bioavailability is reported as 56%. In the case of `CC(C)[C@H](N)C(=O)OC[C@H](CO)OCn1cnc2c(=O)nc(N)[nH]c21` [(S)-VALGANCICLOVIR], the bioavailability is reported as 59.4%. `O=C1C(O)=C([C@H]2CC[C@H](c3ccc(Cl)cc3)CC2)C(=O)c2ccccc21` [ATOVAQUONE] gave a bioavailability of 23%. In the case of `O[C@](CCN1CCCC1)(c1ccccc1)C1CCCCC1` [(S)-PROCYCLIDINE], the bioavailability is reported as 75%. Molecule `COc1ccccc1Oc1c(NS(=O)(=O)c2ccc(C(C)(C)C)cc2)nc(-c2ncccn2)nc1OCCO` [BOSENTAN] has a bioavailability of 50%. `C[C@H]1c2cccc(O)c2C(=O)C2=C(O)[C@]3(O)C(=O)C(C(N)=O)=C(O)[C@@H](N(C)C)[C@@H]3[C@@H](O)[C@@H]21.O` [DOXYCYCLINE] gave a bioavailability of 93%. With `CCOC(=O)C(CCc1ccccc1)N[C@@H](C)C(=O)N1CCC[C@H]1C(=O)O` (single isomer, unassigned) the bioavailability was 41%. Molecule `CC(C)(C)NC[C@@H](O)c1ccc(O)c(CO)c1` [(S)-ALBUTEROL] has a bioavailability of 71%. For `CCCNC1CCc2nc(N)sc2C1` (single isomer, unassigned) [PRAMIPEXOLE], the bioavailability was 90%. For `COc1cc(Cc2cnc(N)nc2N)cc(OC)c1OC` [TRIMETHOPRIM], the bioavailability was 63%. `O=C(N[C@H](CO)[C@H](O)c1ccc([N+](=O)[O-])cc1)C(Cl)Cl` [CHLORAMPHENICOL] showed a bioavailability of 69%. For `COc1cc(N[C@H](C)CCCN)c2ncccc2c1`, the bioavailability was 96%. Molecule `COC(=O)C1=C(C)NC(C)=C(C(=O)OC(C)C)[C@@H]1c1cccc2nonc12` [(R)-ISRADIPINE] has a bioavailability of 19.5%. `CC[C@H]1OC(=O)[C@H](C)[C@@H](O[C@H]2C[C@@](C)(OC)[C@@H](O)[C@H](C)O2)[C@H](C)[C@@H](O[C@@H]2O[C@H](C)C[C@H](N(C)C)[C@H]2O)[C@](C)(OC)C[C@@H](C)C(=O)[C@H](C)[C@@H](O)[C@]1(C)O` [CLARITHROMYCIN] showed a bioavailability of 50%. `Cc1onc(-c2ccccc2Cl)c1C(=O)N[C@@H]1C(=O)N2[C@@H]1SC(C)(C)[C@@H]2C(=O)O` [CLOXACILLIN] showed a bioavailability of 37%. `C[C@@H](O)Cn1cnc2c1c(=O)n(C)c(=O)n2C` [(R)-PROXYPHYLLINE] showed a bioavailability of 100%. With `CN(Cc1cnc2nc(N)nc(N)c2n1)c1ccc(C(=O)N[C@@H](CCC(=O)O)C(=O)O)cc1` [METHOTREXATE] the bioavailability was 70%. Work on `C[C@H](N/C(=N/c1ccncc1)NC#N)C(C)(C)C` yielded a bioavailability of 57%. Work on `Cc1cc2c(OC[C@H](O)CNC(C)C)cccc2[nH]1` [(R)-MEPINDOLOL] yielded a bioavailability of 82%. `C[C@@H](CN1c2ccccc2Sc2ccccc21)N(C)C` [(S)-PROMETHAZINE] showed a bioavailability of 25%. `CC(C)(O)c1ccccc1CC[C@@H](SCC1(CC(=O)O)CC1)c1cccc(/C=C/c2ccc3ccc(Cl)cc3n2)c1` [MONTELUKAST] showed a bioavailability of 73%. Work on `Cc1cccc(C)c1OC[C@@H](C)N` [(R)-MEXILETINE] yielded a bioavailability of 87%. `Nc1nc(N)c2nc(-c3ccccc3)c(N)nc2n1` gave a bioavailability of 51%. In the case of `CCCCNc1cc(C(=O)O)cc(S(N)(=O)=O)c1Oc1ccccc1` [BUMETANIDE], the bioavailability is reported as 81%. Work on `CCCCNC(=O)NS(=O)(=O)c1ccc(C)cc1` [TOLBUTAMIDE] yielded a bioavailability of 85%. With `CCc1cccc2cc([C@H](O)CNC(C)(C)C)oc12` [(R)-BUFURALOL] the bioavailability was 46%. `CCOC(=O)C1=C(C)NC(C)=C(C(=O)OC)[C@H]1c1cccc(Cl)c1Cl` [(R)-FELODIPINE] showed a bioavailability of 15%. Work on `CS(=O)(=O)c1ccc2c(c1)N(CCCN1CCC(C(N)=O)CC1)c1ccccc1S2` [METOPIMAZINE] yielded a bioavailability of 19%. Molecule `CN1CCC[C@@H]1Cc1c[nH]c2ccc(CCS(=O)(=O)c3ccccc3)cc12` has a bioavailability of 62.5%. With `CC(C)NC[C@H](O)c1ccc(NS(C)(=O)=O)cc1` the bioavailability was 60%. For `CCC(C)n1ncn(-c2ccc(N3CCN(c4ccc(OC[C@H]5CO[C@](Cn6cncn6)(c6ccc(Cl)cc6Cl)O5)cc4)CC3)cc2)c1=O` (some centres undefined) [ITRACONAZOLE], the bioavailability was 55%. `CCOC(=O)C(C)(C)Oc1ccc(Cl)cc1` [CLOFIBRATE] showed a bioavailability of 95%. For `CC(=O)OCC(CCn1cnc2cnc(N)nc21)COC(C)=O` [FAMCICLOVIR], the bioavailability was 77%. For `CCCc1nc(C(C)(C)O)c(C(=O)O)n1Cc1ccc(-c2ccccc2-c2nnn[nH]2)cc1` [OLMESARTAN], the bioavailability was 26%. Molecule `CC(=O)S[C@@H]1CC2=CC(=O)CC[C@]2(C)[C@H]2CC[C@@]3(C)[C@@H](CC[C@@]34CCC(=O)O4)[C@H]12` [SPIRONOLACTONE] has a bioavailability of 25%. Work on `O=C(CCCN1CCC(O)(c2ccc(Cl)cc2)CC1)c1ccc(F)cc1` [HALOPERIDOL] yielded a bioavailability of 60%. `COc1cc2nc(N3CCN(C(=O)c4ccco4)CC3)nc(N)c2cc1OC` [PRAZOSIN] showed a bioavailability of 68%.
